Experimental data taken from patent US20130071936A1, “FRET-BASED ZINC(II) ION INDICATOR” (The Florida State University Research Foundation, Inc., priority 2011, published 2013).
Like-named read-outs stand apart in the source and are kept apart here. Marks after values point to notes of the source that are not given here.

Experiments:
[1] = pKa and effect of pH on emission; format: physicochemical
Description: FIG. 10 is a graph depicting the effect of pH on emission spectra of zinc(II) ion chelated FRET donor compound (1) (pH=2.7-10.4).
The titration experiments using zinc(II) ion indicator (4) were also carried out in an aqueous/organic mixed solvent (1:9 MOPS buffer (pH 7.2)/CH3CN). […] (FIG. 9). Comparing to the observations in CH3CN, the fluorescence is rather dim. The loss of fluorescence can be explained by the hydrogen bonding interaction between the protic solvent and the carbonyl groups on NDI, which provides a non-radiative deactivation pathway. See F. Würthner, S. Ahmed, C. Thalacker and T. Debaerdemaeker, Chem. Eur. J., 2002, 8, 4742. […] By extension, the fluorescence of zinc(II) ion indicators (4) and (5) would not be affected by the fluctuations of pH within the physiological range.

[2] = Spectroscopic data (absorption, emission, fluorescence quantum yield) in CH3CN; format: physicochemical; conditions: for λem / λabs (A band) / λabs (D band) / ∈/10^3 (A band) / ∈/10^3 (D band): complexes: Zn(ClO4)2 10 equiv.
Description: Reagents and solvents were purchased from various commercial sources and used without further purification unless otherwise stated. CH3CN (OmniSolv, EMD) were directly used in titration experiments without purification. All reactions were carried out in oven- or flame-dried glassware. Analytical thin-layer chromatography (TLC) was performed using pre-coated TLC plates with silica gel 60 F254 (EMD) or with aluminum oxide 60 F254 neutral (EMD). Flash column chromatography was performed using 40-63 μm (230-400 mesh ASTM) silica gel (EMD) or alumina (80-200 mesh, pH 9-10, EMD) as the stationary phases. Silica and alumina gel was flame-dried under vacuum to remove absorbed moisture before use. ^1H NMR spectra were recorded at 300 MHz on a Varian Mercury spectrometer. ^13C NMR spectra were recorded at 125 MHz, on a Bruker Avance spectrometer. All chemical shifts were reported in δ units relative to tetramethylsilane. High resolution mass spectra were obtained at the Mass Spectrometry Laboratory at Florida State University. ESI spectra were obtained on a JEOL AccuTOF spectrometer. Spectrophotometric and fluorometric titrations were conducted on a Varian Cary 100 Bio UV-Visible Spectrophotometer and a Varian Cary Eclipse Fluorescence Spectrophotometer, respectively, with a 1-cm standard quartz cell. The fluorescence quantum yield was determined by comparison of the integrated area of corrected emission spectrum with reference of N,N′-di-n-octyl-2,6-di-n-octylamino-1,4,5,8-naphthalenetetracarboxylic acid diimide (φf=0.53 in CH2Cl2) as the reference by the literature method. See Thalacker, C.; Röger, C.; Würthner, F. J. Org.

[3] = system: mitochondrial zinc(II) in HeLa (S3) cells; test: Zinc(II) supplementation experiment, fluorescence microscopy; format: cell-based; conditions: indicator 1.8 μM, 50 μM ZnCl2, λex 405 nm, λem 580-680 nm
Description: FIGS. 15A and 15B are fluorescence images of HeLa (S3) cells incubated with compound (5) (1.8 μM). FIG. 15A depicts no zinc(II) added, and FIG. 15B depicts fluorescence in the presence of 50 μM ZnCl2. A 405 nm diode laser line was used for excitation. λem 580-680 nm. Scale bar: 10 μm. The DIC images are included in FIGS. 16A and 16B.
FIGS. 16A and 16B are DIC and fluorescence overlay images of HeLa (S3) cells incubated with compound (5) (1.8 μM). FIG. 16A depicts no zinc(II) added, and FIG. 16B depicts emission in the presence of 50 μM ZnCl2. A 405 nm diode laser line was used for excitation. λem 580-680 nm. Scale bar: 10 μm.
See also FIGS. 16A and 16B. […] The addition of zinc(II) ion indicator (5) to the group of very few synthetic indicators that target mitochondrial zinc(II) shall aid the characterization of mitochondrial zinc(II) which is intimately correlated to the chemistry of reactive oxygen species (ROS). See E. Tomat, E. M. Nolan, J. Jaworski and S. J. Lippard, J. Am. Chem. Soc., 2008, 130, 15776; G. Masanta, C. S. Lim, H. J. Kim, J. H. Han, H. M. Kim and B. R. Cho, J. Am. Chem. Soc., 2011, 133, 5698; Y. Qin, P. J. Dittmer, J. G. Park, K. B. Jansen and A. E. Palmer, Proc. Nat. Acad. Sci. USA, 2011, 108, 7351; and S. L. Sensi, D. Ton-That, P. G. Sullivan, E. A. Jonas, K. R. Gee, L. K. Kaczmarek and J. H. Weiss, Proc. Natl. Acad. Sci. U.S.A., 2003, 100, 6157. […]

[4] = system: mitochondria of HeLa (S3) cells transfected with mCerulean3 TOMM-20; test: Colocalization by confocal fluorescence microscopy with mCerulean3 TOMM-20; format: cell-based
Description: FIGS. 13A through 13F are confocal fluorescence images of living HeLa (S3) cells transfected with mCerulean3 TOMM-20 that were incubated with zinc(II) ion indicator (5) (1.8 μM, A-C) and zinc(II) ion indicator (4) (6.0 μM, D-F) for 30 min. FIGS. 13A (zinc(II) ion indicator (5)) and 13D (zinc(II) ion indicator (4)) depict the green channel, λex 405 nm, λem 425-475 nm. FIGS. 13B (zinc(II) ion indicator (5)) and 13E (zinc(II) ion indicator (4)) depict the red channel, λex 543 nm, λem 580-680 nm. FIGS. 13C (zinc(II) ion indicator (5)) and 13F (zinc(II) ion indicator (4)) depict the merged image. Scale bar: 10 μm.
FIGS. 14A through 14F are confocal fluorescence images of live HeLa (S3) cells transfected with mCer3 TOMM20 that were incubated with FRET acceptor compound (3) (9.0 μM, A-C) and FRET acceptor compound (2) (52 μM, D-F) for 30 min. FIGS. 14A (FRET acceptor compound (3)) and 14D (FRET acceptor compound (2)) depict the green channel, λex 405 nm, λem 425-475 nm. FIGS. 14B (FRET acceptor compound (3)) and […] (FRET acceptor compound (2)) depict the red channel, λex 543 nm, λem 580-680 nm. FIGS. 14C (FRET acceptor compound (3)) and […] (FRET acceptor compound (2)) depict the merged image. Scale bar: 10 μm.
The colocalization properties of red-emitting compounds (2-5) were studied using HeLa (S3) cells transfected with mCerulean3 TOMM-20, a cyan fluorescent protein (CFP) fused with a mitochondrial targeting sequence whose emission is shown in the green channel. See FIG. 13A for emission spectrum from cells incubated with TPP-containing zinc(II) ion indicator (5), and see FIG. 13D for emission spectrum from cells incubated with zinc(II) ion indicator (4). […] The overall intracellular fluorescence intensity from zinc(II) ion indicator (4) is low, which is consistent with the observed weak fluorescence of the NDI fluorophore in aqueous solutions.
The localization properties of (2-5) were determined via costaining experiments using mCerulean3 TOMM-20, a mitochondrial-specific fusion of the cyan fluorescent protein (CFP) mCerulean3. mCerulean3 is a bright monomeric FP with an emission maximum of 475 nm. HeLa S3 cells were seeded onto Bioptechs Delta-T dishes 48 h prior to experimentation, then transfected about 24 h prior to loading the indicator using an Effectene Transfection Reagent Kit (Qiagen) and 1 μg of DNA. A 1:1 mixture of Dulbecco's modified Eagle's medium and Ham's F-12 (Invitrogen) supplemented with 12.5% fetal bovine serum was used as the culture medium. On the day of experimentation cells were rinsed twice with media and incubated with indicator 5 (1.8 μM) for 30 min. Prior to imaging cells were again rinsed twice with media, then provided with 1 mL of fresh media.
All cells were imaged using an Olympus Fluoview FV1000 confocal laser scanning microscope with an Olympus PLAPO 60× oil-immersion objective (NA=1.4). During experimentation cells were maintained at 37° C. and 5.0% CO2 using a Bioptechs Delta T4 Culture Dish Controller. Individual cells were imaged sequentially in two channels, using a 543 nm Helium-Neon laser line to excite the indicator and a 405 nm diode laser line to excite the FP. Cells were selected by the quality of FP expression, as the indicators tended to load homogenously into the cells. All data was collected using FluoView Software (Olympus). Laser power and detection settings were optimized for each image to fill LUTs. A pinhole size of 200 μm was used for each image. […]

[5] = CH3CN, data taken from Younes et al. J. Org. Chem. 2009, cited from earlier work
[6] = λex = 400 nm, Zn(ClO4)2 10 equiv.

| Compound | λabs [2] [nm] | ∈/10^3 [2] | φf ([2]; λex = 565 nm) | λem [2] [nm] | λabs (A band) [2] | λabs (D band) [2] | ∈/10^3 (A band) [2] | ∈/10^3 (D band) [2] | also measured |
| --- | --- | --- | --- | --- | --- | --- | --- | --- | --- |
| COc1ccc(/C=C/c2ccc(-c3ccc(C)cn3)nc2)cc1 [(1), 5-(4-methoxystyryl)-5′-methyl-2,2′-bipyridine] | 345 | 34 10^3 M^-1 cm^-1 |  | 428 |  |  |  |  | pKa [1]: 4.6; φf ([2]; λex = 365 nm): 0.28^a |
| COCCCN1C(=O)c2cc(NCCOc3ccc(/C=C/c4ccc(-c5ccc(COCCOCCOC)cn5)nc4)cc3)c3c4c(cc(NCCCCC[P+](c5ccccc5)(c5ccccc5)c5ccccc5)c(c24)C1=O)C(=O)N(CCCOC)C3=O.[I-] [Compound (5)] |  |  | 0.28^c | 633 | 602 (A) nm | 347 (D) nm | 23 10^3 M^-1 cm^-1 | 81 10^3 M^-1 cm^-1 | red channel fluorescence upon addition of supplemental zinc(II) in the growth media [3]: increase in intramolecular fluorescence; colocalization with mitochondrial CFP (mCerulean3 TOMM-20) ([4]; 30 min incubation, (5) 1.8 μM, (4) 6.0 μM, (3) 9.0 μM, (2) 52 μM): localizes selectively in mitochondria; overall intracellular fluorescence intensity ([4]; red channel λex 543 nm, λem 580-680 nm): surprisingly strong intracellular fluorescence |
| COc1ccc(/C=C/c2ccc(-c3ccc(C)cn3)nc2)cc1.[Zn+2] [[Zn(1)]^2+] |  |  |  |  |  |  |  |  | change of fluorescence intensity with pH ([1]; range of pH 6.0-9.0, intensity at 460 nm, λex 380 nm): little change; φf ([5]; λex = 365 nm): 0.46^a; λabs [5]: 374 nm; λem [5]: 528 nm; ∈/10^3 [5]: 28 10^3 M^-1 cm^-1 |
| COCCCNc1cc2c3c(c(NCCOc4ccc(/C=C/c5ccc(-c6ccc(COCCOCCOC)cn6)nc5)cc4)cc4c3c1C(=O)N(CCCOC)C4=O)C(=O)N(CCCOC)C2=O.[Zn+2] [[Zn(4)]^2+] |  |  |  | 633 | 600 (A) nm | 360 (D) nm | 21 10^3 M^-1 cm^-1 | 55 10^3 M^-1 cm^-1 | φf [2, 6]: 0.31^e |
| COCCCN1C(=O)c2cc(NCCOc3ccc(/C=C/c4ccc(-c5ccc(COCCOCCOC)cn5)nc4)cc3)c3c4c(cc(NCCCCC[P+](c5ccccc5)(c5ccccc5)c5ccccc5)c(c24)C1=O)C(=O)N(CCCOC)C3=O.I.[Zn+2] [[Zn(5)]^2+] |  |  |  | 633 | 602 (A) nm | 363 (D) nm | 21 10^3 M^-1 cm^-1 | 67 10^3 M^-1 cm^-1 | φf [2, 6]: 0.29^e |

Further lines, with some results ahead:

| λabs [2] [nm] | ∈/10^3 [2] | φf ([2]; λex = 565 nm) | Compound | λem [2] [nm] | λabs (A band) [2] | λabs (D band) [2] | ∈/10^3 (A band) [2] | ∈/10^3 (D band) [2] | also measured |
| --- | --- | --- | --- | --- | --- | --- | --- | --- | --- |
| 607 | 22 10^3 M^-1 cm^-1 | 0.51^c | COCCCNc1cc2c3c(c(NCCCOC)cc4c3c1C(=O)N(CCCOC)C4=O)C(=O)N(CCCOC)C2=O [Compound (2)] | 638 |  |  |  |  |  |
| 607 | 23 10^3 M^-1 cm^-1 | 0.48^c | COCCCNc1cc2c3c(c(NCCCCC[P+](c4ccccc4)(c4ccccc4)c4ccccc4)cc4c3c1C(=O)N(CCCOC)C4=O)C(=O)N(CCCOC)C2=O [Compound (3)] | 639 |  |  |  |  |  |
